According to patent publication US9518000B2, “Bicyclo [2.2.1] acid GPR120 modulators” (BRISTOL-MYERS SQUIBB COMPANY, priority 2013, dated 2016):

Biological target: human GPR120 (Homo sapiens (Human), UniProt Q5NUL3)
Experiment: GPR120 pERK AlphaScreen SureFire Assay (human GPR120 pERK assay)
Format: cell-based
Conditions: CHOA12 or CHO-K1 cells stably transfected with the short form of human GPR120 receptor; phosphorylated ERK; read-out: EC50 values measured in the human GPR120 pERK assay
Text: GPR120 activity was monitored by measuring phosphorylation of ERK (pERK), since G protein receptors are known to activate the ERK signaling cascade either directly and/or through recruitment of arrestin that serves as a scaffold for downstream signaling events.
GPR120 pERK AlphaScreen SureFire Assay
The human and mouse GPR120-mediated intracellular phosphorylated ERK assays were established using CHOA12 cells stably transfected with the short form of human or mouse GPR120 receptor. Cells were cultured in growth medium consisting of F-12 media (Invitrogen Cat. #11765) with 5% Charcoal/Dextran FBS (Invitrogen Cat. #12676-029), 500 μg/mL GENETICIN® (Life Technologies Cat. #10131-027) and 250 μg/mL Zeocin (Invitrogen Cat. #R250-01). Cells were cryo preserved at a concentration of 2×10^7 cells/mL, in 90% Charcoal/Dextran FBS and 10% DMSO, and frozen in liquid nitrogen at a low passage number.
For the pERK assay, 2×10^7 cells/mL cryopreserved human and mouse cells were thawed rapidly in a 37° C. water bath and added to a T-225 flask containing 50 mL growth medium. The flasks were placed in a tissue culture incubator overnight (37° C., 5% CO2). The next day, cells were harvested with trypsin (Gibco Cat. #25300-054), resuspended in serum-containing growth medium and counted using a Cellometer and volume adjusted to a concentration of 0.6×10^6 cells/mL. Cells were plated into 384-well clear bottom tissue culture plates (BD Cat. #353962) at 50 μL/well, for a density of 30,000 cells/well using a MULTIDROP® and incubated for 16-18 hours (overnight) at 37° C. with 5% CO2. The next day, cells were serum starved in 30 μL of F-12 media without any serum or antibiotics for 2 hours at 37° C.
Test compounds were 3-fold, 11-point serially diluted in DMSO in a REMP assay plate (Matrix Cat. #4307) by Tecan and 5 μL was transferred into an ECHO source plate (LabCyte Cat. #LC-0200). Cells were then stimulated with 50 nL of compound dilutions using ECHO liquid handler for 7 minutes at 37° C. Compounds ranged from final assay concentrations of 33.33 μM to 0.56 nM.
The media was then dumped and cells lysed with 20 μL of 1× Lysis buffer from the AlphaScreen SureFire Phospho-ERK 1/2 Kit (Perkin Elmer Cat. #6760617M). The lysis buffer was diluted 5-fold with water before use. The plate was agitated on a shaker for 10 minutes after which 2 μL was transferred into a 384-well white proxiplate (Perkin Elmer Cat. #6008289). The SureFire assay reagent mix was prepared by mixing 60 parts Reaction Buffer, 10 parts Activation Buffer, 1 part Donor Beads, 1 part Acceptor Beads (Perkin Elmer Cat. #TGRES10K). 3.5 μL/well of this reagent mix was manually added to the proxiplate with a multichannel pipettor. Plates were spun down at 1000 rpm for 2 minutes, followed by light-protected incubation at room temperature for 2 hours. The plates were read on the Alpha-technology compatible Envision multilabel plate reader using AlphaScreen protocol according to manufacturer's specifications. The agonist effect of compounds was expressed as 100×(average sample-average blank)/(average total−average blank) where sample is the luminescence activity in the presence of test compound, blank is equal to the luminescence activity in the presence of DMSO control and the total is signal induced by 50 μM linolenic acid as reference compound. Activation data for the test compound over a range of concentrations was plotted as percentage activation of the test compound (100%=maximum response). After correcting for background, EC50 values were determined. The EC50 is defined as the concentration of test compound which produces 50% of the maximal response and was quantified using the 4 parameter logistic equation to fit the data.
The human and mouse GPR120-mediated intracellular phosphorylated ERK assays were also established using CHO-K1 cells stably transfected with the short form of human or mouse GPR120 receptor. […]

Sequence of human GPR120 (Q5NUL3 whole entry): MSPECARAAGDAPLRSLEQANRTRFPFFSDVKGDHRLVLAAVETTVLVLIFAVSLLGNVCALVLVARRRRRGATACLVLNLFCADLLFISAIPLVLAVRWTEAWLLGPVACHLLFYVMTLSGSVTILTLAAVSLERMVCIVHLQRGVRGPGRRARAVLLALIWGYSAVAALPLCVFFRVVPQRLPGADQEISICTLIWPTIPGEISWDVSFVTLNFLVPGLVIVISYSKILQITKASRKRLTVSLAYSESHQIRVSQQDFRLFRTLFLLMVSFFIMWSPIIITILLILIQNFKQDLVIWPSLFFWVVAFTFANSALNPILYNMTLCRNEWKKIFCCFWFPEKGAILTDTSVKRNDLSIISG

Compound	EC50 [µM]
O=C(O)CCC12CCC(OCCc3cccc(Oc4ccccc4)c3)(CC1)C2 [Example 88, 3-(4-(3-phenoxyphenethoxy)bicyclo[2.2.1]heptan-1-yl)propanoic acid]	2.64
CC1(C)Cc2cc(Cl)cc(COC34CCC(COCC(=O)O)(CC3)C4)c2O1 [Example 77, 2-((4-((5-chloro-2,2-dimethyl-2,3-dihydrobenzofuran-7-yl)methoxy)bicyclo[2.2.1]heptan-1-yl)methoxy)acetic acid]	4.53
O=C(O)CCCC12CCC(OCc3cc(F)cc(Oc4ccccc4)c3)(CC1)C2 [Example 34, 4-(4-(3-fluoro-5-phenoxybenzyl-oxy)bicyclo [2.2.1]heptan-1-yl)butanoic acid]	0.4
COc1cc(Cl)cc(COC23CCC(CCCC(=O)O)(CC2)C3)c1 [Example 31, 4-(4-(3-chloro-5-methoxybenzyl-oxy)bicyclo [2.2.1]heptan-1-yl)butanoic acid]	0.9
NC(=O)CNC(=O)CCCC12CCC(OCc3cc(F)cc(Oc4ccccc4)c3)(CC1)C2 [Example 98, N-(2-Amino-2-oxoethyl)-4-(4-((3-fluoro-5-phenoxybenzyl)oxy)bicyclo[2.2.1]heptan-1-yl)butanamide]	2.68
OCCC12CCC(OCc3cc(F)cc(Oc4ccccc4)c3)(CC1)C2 [Example 99, 2-(4-((3-Fluoro-5-phenoxybenzyl)oxy)bicyclo[2.2.1]heptan-1-yl)ethanol]	6.36
O=C(O)CCCC12CCC(OCc3cc(Cl)ccc3F)(CC1)C2 [Example 52, 4-(4-(5-chloro-2-fluorobenzyl-oxy)bicyclo [2.2.1]heptan-1-yl)butanoic acid]	0.69
COc1ccc(Br)cc1COC12CCC(CCCC(=O)O)(CC1)C2 [Example 60, 4-(4-(5-bromo-2-methoxybenzyl-oxy)bicyclo [2.2.1]heptan-1-yl)butanoic acid]	4.15
O=C(O)CCCC12CCC(OCc3cc(F)cc(OC(F)(F)F)c3)(CC1)C2 [Example 28, 4-(4-(3-fluoro-5-(trifluorometh-oxy)benzyloxy)bicyclo[2.2.1]heptan-1-yl) butanoic acid]	0.39
O=C(O)CCC12CCC(OCc3cc(F)cc(Oc4ccccc4)c3)(CC1)C2 [Example 90, 3-(4-((3-fluoro-5-phenoxybenzyl)oxy)bicyclo [2.2.1]heptan-1-yl) propanoic acid]	1.22
O=C(O)CCOC12CCC(OCc3cc(F)cc(Oc4ccccc4)c3)(CC1)C2 [Example 79, 3-(4-(3-Fluoro-5-phenoxybenzyloxy)bicyclo[2.2.1]heptan-1-yloxy)propanoic acid]	0.27
O=C(O)CCCC12CCC(OCc3ccccc3-c3ccccc3)(CC1)C2 [Example 48, 4-(4-(biphenyl-2-ylmethoxy)bicyclo[2.2.1]heptan-1-yl) butanoic acid]	0.32
O=C(O)/C=C/CC12CCC(OCc3cccc(Oc4ccccc4)c3)(CC1)C2 [Example 94, (E)-4-(4-((3-Phenoxybenzyl)oxy)bicyclo[2.2.1]heptan-1-yl)but-2-enoic acid]	0.63
O=C(O)CCCC12CCC(OCc3cccc(Cl)c3F)(CC1)C2 [Example 45, 4-(4-(3-chloro-2-fluorobenzyl-oxy)bicyclo [2.2.1]heptan-1-yl)butanoic acid]	0.71
CC(OC12CCC(CCCC(=O)O)(CC1)C2)c1cccc(C(F)(F)F)c1 (centres unmarked) [Example 8, 4-(4-(1-(3-(trifluoromethyl)phenyl)ethoxy)bicyclo[2.2.1]heptan-1-yl) butanoic acid]	2.34
CSc1nccc(COC23CCC(CCCC(=O)O)(CC2)C3)n1 [Example 67, 4-(4-((2-(methylthio)pyrimidin-4-yl)methoxy)bicyclo[2.2.1]heptan-1-yl) butanoic acid]	4.96

Compound	EC50 [µM]
O=C(O)CCCC12CCC(OCc3cccc(Oc4ccccc4)c3)(CC1)C2 [Example 15, 4-(4-(3-phenoxy-benzyloxy)bicyclo[2.2.1]heptan-1-yl) butanoic acid]	0.36
O=C(O)C1CC1CC12CCC(OCc3cccc(Oc4ccccc4)c3)(CC1)C2 (centres unmarked) [Example 95, 2-((4-((3-Phenoxybenzyl)oxy)bicyclo[2.2.1]heptan-1-yl)methyl)cyclopropanecarboxylic acid]	0.51
O=C(O)CCC12CCC(OCCc3cccc4ccccc34)(CC1)C2 [Example 87, 3-(4-(2-(naphthalen-1-yl)ethoxy)bicyclo [2.2.1]heptan-1-yl) propanoic acid]	1.31
O=C(O)CCCC12CCC(OCc3cccc(Cl)c3)(CC1)C2 [Example 23, 4-(4-(3-chloro-benzyloxy)bicyclo[2.2.1]heptan-1-yl) butanoic aicd]	1.15
O=C(O)CCCC12CCC(OCc3cccc(SC(F)(F)F)c3)(CC1)C2 [Example 50, 4-(4-(3-(trifluoro-methylthio)benzyloxy)bicyclo[2.2.1]heptan-1-yl) butanoic acid]	0.54
O=C(O)CCCC12CCC(OCc3c(F)ccc(F)c3F)(CC1)C2 [Example 47, 4-(4-(2,3,6-trifluorobenzyl-oxy)bicyclo [2.2.1]heptan-1-yl)butanoic acid]	7.81
O=C(O)CCCC12CCC(OCc3ccsc3Br)(CC1)C2 [Example 54, 4-(4-((2-bromo-thiophen-3-yl)methoxy)bicyclo [2.2.1]heptan-1-yl)butanoic acid]	1.69
O=C(O)CCCC12CCC(OCc3c(Cl)ccc(Cl)c3Cl)(CC1)C2 [Example 59, 4-(4-(2,3,6-trichlorobenzyl-oxy)bicyclo [2.2.1]heptan-1-yl)butanoic acid]	0.61
O=C(O)CCCC12CCC(OCc3cc([N+](=O)[O-])ccc3Cl)(CC1)C2 [Example 51, 4-(4-(2-chloro-5-nitrobenzyloxy)bicyclo[2.2.1]heptan-1-yl) butanoic acid]	2.39
Cc1ccc(COC23CCC(CCCC(=O)O)(CC2)C3)cc1F [Example 12, 4-(4-(3-fluoro-4-methylbenzyl-oxy)bicyclo [2.2.1]heptan-1-yl)butanoic acid]	6.72
3-(4-(1-(3-fluoro-5-(4- fluorophenoxy)phenyl)ethoxy) bicyclo[2.2.1]heptan-1-yloxy) propanoic acid [Example 82]	0.98
O=C(O)CCCC12CCC(OCc3cc(C(F)(F)F)ccc3Cl)(CC1)C2 [Example 63, 4-(4-(2-chloro-5-(trifluoromethyl)benzyloxy)bicyclo[2.2.1]heptan-1-yl) butanoic acid]	2.47
O=C(O)CCCC12CCC(OCc3cc(F)cc(Cl)c3)(CC1)C2 [Example 22, 4-(4-(3-chloro-5-fluorobenzyl-oxy)bicyclo [2.2.1]heptan-1-yl)butanoic acid]	0.73
O=C(O)CCCC12CCC(OCc3cccc(C(F)(F)F)c3F)(CC1)C2 [Example 46, 4-(4-(2-fluoro-3-(trifluoromethyl)benzyloxy)bicyclo[2.2.1]heptan-1-yl) butanoic acid]	0.29
CC1(C)Cc2cc(Cl)cc(COC34CCC(CCCC(=O)O)(CC3)C4)c2O1 [Example 3, 4-(4-((5-chloro-2,2-dimethyl-2,3-dihydro-benzofuran-7-yl)methoxy)bicyclo[2.2.1]heptan-1-yl) butanoic acid]	0.53
OCC(O)CCC12CCC(OCc3cc(F)cc(Oc4ccccc4)c3)(CC1)C2 (single isomer, unassigned) [Example 96, 4-(4-((3-Fluoro-5-phenoxybenzyl)oxy)bicyclo[2.2.1]heptan-1-yl)butane-1,2-diol]	0.38
